Measurements published in patent US20200188394A1, “TREATMENT OF LIVER DISEASE” (UNIVERSITY OF NEWCASTLE UPON TYNE, priority 2016, published 2020).
Entries after “also recorded” stand apart in the source; their conditions may differ.

Tests used:
Type in all cases: cell-based, rat
[1] = tested on: hepatocytes; assay: Cell G6P / hexose 6-phosphate (H6P) determination in hepatocytes; conditions: for H6P concentration / glucose-6-phosphate concentration: hepatocytes; for H6P concentration: 5 or 10 mM DG with 5 mM glucose (FIG. 6B); for glucose-6-phosphate concentration: 2 hours, 10 nM insulin, 5, 15 or 25 mM glucose, 10 μM GKA vs glucose alone (FIG. 2B)
Protocol: (§1) Hepatocytes were isolated from male Wistar rats (body wt 200-300 g) (Envigo, Bicester, UK). Procedures conformed to Home Office Regulations. The hepatocytes were suspended in Minimum Essential Medium (MEM) 21430 (Life Technologies, GIBCO BRL, Grand Island, N.Y.) with 5% (v/v) calf serum (Life Technologies, GIBCO BRL, Grand Island, N.Y.) and seeded on gelatin-coated plates. After cell attachment (˜4 hours) the medium was replaced by serum-free medium containing 5 mM glucose, 10 nM dexamethasone, 1 nM insulin and experiments were started after ˜20 hours culture by challenge with media containing 5 mM glucose, 15 mM glucose or 25 mM glucose and other additions as indicated.
Hepatocytes were incubated for 1 or 2 hours in MEM containing 10 nM insulin and 5, 15, or 25 mM glucose with or without 10μM GKA 3-cyclopentyl-2-(4-methanesulfonylphenyl)-N-thiazol-2-yl-propionamide (RO 28-1675) (Axon MedChem BV, Groningen) for determination of glucose phosphorylation (nmol/2 h per mg) and cell G6P (nmol/mg protein).
(§2) Incubations with 2-deoxyglucose (DG) where carried out as described previously but with 5 or 10 mM DG with 5 mM glucose (5G) and with or without 2 μM S4048.
Medium containing the cultured hepatocytes was drained from cell culture plates and the plates were snap-frozen in liquid nitrogen and stored at −80° C. For H6P determination, cells were extracted in 2.5% sulphosalicylic acid for deproteinization (10,000g, 10 min) and the supernatants were then neutralized with KOH/KH^2PO4 (3 M/1 M) and metabolites assayed on the neutralized deproteinized extracts. For fructose 2,6-P2, cells were extracted in 0.15 M NaOH.
For G6P and H6P determination the assay procedure involved coupling of the dehydrogenation of G6P by glucose-6-phosphate dehydrogenase to the […] by the reduction of the molecule resazurin to resorufin by NADP measured by the […]. Standards of G6P (2 to 20 μM) were prepared in 2.5% sulphosalicylic acid and neutralized with KOH/KH2PO4 (3 M/1 M) as in samples for metabolite determination. Standards and samples (20 μl) were then assayed in a final reaction volume of 200 μI containing 50 mM triethanolamine (TEA, pH 7.6), 1.0 mM MgCl2, 100 μM NADP+, 10 μM resazurin, 0.1 U/ml G6PD, and 0.2 U/ml diaphorase. The mixtures were then incubated for 30 min at room temperature. Fluorescence at 590 nm was measured using excitation at 530 nm using a plate reader (M5E Molecular devices). Background fluorescence was corrected by subtracting the value of the no-G6P control from all sample readings and sample values were read off the linear standard curve determined from the G6P standards.
Metabolites are expressed as nmol/mg protein except for fructose 2,6-P2 which is expressed as pmol/mg of total cell protein determined by a Lowry assay.

[2] = tested on: G6pc mRNA; assay: Relative G6pc mRNA expression in hepatocytes (real-time RT-PCR); conditions: for G6pc mRNA relative expression: 5 or 10 mM DG with 5 mM glucose (FIG. 6C); for relative expression of G6pc mRNA: 4 hours
Protocol: as §1
(§3) Incubations for mRNA analysis and fructose 2,6-bisphosphate were for 4 hrs in MEM with 5, 15, or 25 mM glucose with or without 10 nM insulin and with or without 2 mM fructose. In samples including GKA, 10 μM GKA RO 28-1675 was added.
as §2
(§4) RNA was extracted using TRIzol (Invitrogen) and cDNA was synthesized from 1 μg of RNA with MMLV (Promega). Real-time RT-PCR was performed in a total volume of 10 μl containing 50 ng of reverse transcribed RNA and 5 ng of forward and reverse primers using a Sybr-Green protocol (Promega) in a Roche Capillary Light Cycler. Relative mRNA levels (vs control) were calculated by the delta cycle threshold method.

[3] = tested on: Gck mRNA; assay: Relative Gck mRNA expression in hepatocytes (real-time RT-PCR); conditions: for Gck mRNA relative expression: 5 or 10 mM DG with 5 mM glucose (FIG. 6D); for relative expression of Gck mRNA: 4 hours, listed as GKA
Protocol: as §1, §3, §2, §4

[4] = tested on: hepatocytes; assay: Fructose 2,6-bisphosphate determination in hepatocytes; conditions: 4 hours, GKA with 15 mM glucose vs 5 mM and 15 mM glucose alone, without or with 10 nM insulin (FIG. 3A), listed as GKA
Protocol: as §1, §3

[5] = tested on: hepatocytes; assay: Glucose phosphorylation in hepatocytes ([2-3H]glucose to 3H2O); conditions: 2 hours, 10 nM insulin, 5, 15 or 25 mM glucose, 10 μM GKA vs glucose alone (FIG. 2A)
Protocol: as §1

[6] = tested on: Pklr mRNA; assay: Relative Pklr mRNA expression in hepatocytes (real-time RT-PCR); conditions: 4 hours, listed as GKA
Protocol: as §1, §3, §2
RNA was extracted using TRIzol (Invitrogen) and cDNA was synthesized from 1 μg of RNA with MMLV (Promega). […] Relative mRNA levels (vs control) were calculated by the delta cycle threshold method.

Row | SMILES | H6P concentration [1] | H6P concentration ([1]; listed as 2DG) | G6pc mRNA relative expression [2] | G6pc mRNA relative expression ([2]; listed as 2DG) | Gck mRNA relative expression [3] | Gck mRNA relative expression ([3]; listed as 2DG) | fractional increase in G6P compared with fractional increase in metabolic flux ([1]; basal (5 mM) and moderate (15 mM) glucose, 10 μM GKA) | glucose-6-phosphate concentration [1] | glucose-6-phosphate concentration ([1]; listed as GKA) | relative expression of G6pc mRNA ([2]; 10 nM insulin, 5, 15 or 25 mM glucose, -/+ 10 μM GKA (FIG. 4C), listed as GKA) | relative expression of G6pc mRNA ([2]; GKA with 15 mM glucose vs 5 mM and 15 mM glucose alone (FIG. 3B)) | relative expression of Gck mRNA ([3]; 10 nM insulin, 5, 15 or 25 mM glucose, -/+ 10 μM GKA (FIG. 4A)) | relative expression of Gck mRNA ([3]; GKA with 15 mM glucose vs 5 mM and 15 mM glucose alone (FIG. 3D)) | fructose 2,6-bisphosphate concentration [4] | glucose phosphorylation [5] | glucose phosphorylation ([5]; listed as GKA) | relative expression of Pklr mRNA ([6]; 10 nM insulin, 5, 15 or 25 mM glucose, -/+ 10 μM GKA (FIG. 4B)) | relative expression of Pklr mRNA ([6]; GKA with 15 mM glucose vs 5 mM and 15 mM glucose alone (FIG. 3C))
1 | O=CC[C@@H](O)[C@H](O)[C@H](O)CO [DG, 2-deoxyglucose] | causes elevation in the cell hexose 6-phosphate (H6P) content | H6P concentration increases with increasing 2DG | does not cause induction of expression of G6pc mRNA | does not affect G6pc mRNA relative expression | repression of Gck mRNA | decrease in Gck mRNA expression |  |  |  |  |  |  |  |  |  |  |  | 
2 | CS(=O)(=O)c1ccc(C(CC2CCCC2)C(=O)Nc2nccs2)cc1 (stereo not drawn) [RO 28-1675, 3-cyclopentyl-2-(4-methanesulfonylphenyl)-N-thiazol-2-yl-propionamide] |  |  |  |  |  |  | greater | increased the concentration of G6P more than glucose alone | increases the cell concentration of G6P at all glucose concentrations | induces the expression of both G6pc and Pklr mRNA; also recorded: increased relative expression of Pklr mRNA and G6pc mRNA at all glucose concentrations | increase in relative expression of both Pklr and G6pc mRNA | represses the relative expression of Gck; also recorded: able to reduce Gck expression; also recorded: reduced the relative expression of Gck mRNA at all glucose concentrations | decrease in relative expression of Gck mRNA; also recorded: decreased relative expression of Gck mRNA | increase in F-2,6-P2; also recorded: increases F-2,6-P2 more than 5 mM glucose and 15 mM glucose | increased phosphorylation more than glucose alone | increases the rate of phosphorylation of glucose | induces the expression of both G6pc and Pklr mRNA; also recorded: increased relative expression of Pklr mRNA | increase in relative expression of both Pklr and G6pc mRNA; also recorded: increased relative expression of Pklr mRNA
